Laboratory results from ChEMBL document CHEMBL1148098, “Neosiphoniamolide A, a novel cyclodepsipeptide, with antifungal activity from the marine sponge Neosiphonia superstes” (1995).
≈ marks a conversion by molar mass, not a printed value.

Tests used:
Assay type in all cases: functional
Phytopythium vexans = assay: Antifungal activity against Pythium vexans assessed as inhibition of mycelium growth
[1] = test system: Globisporangium rostratum; assay: Antifungal activity against Pythium rostratum assessed as inhibition of mycelium growth
Helminthosporium = assay: Antifungal activity against Helminthosporium gramineum assessed as inhibition of mycelium growth
Parastagonospora nodorum = assay: Antifungal activity against Septoria nodorum assessed as inhibition of mycelium growth
Oculimacula yallundae = assay: Antifungal activity against Pseudocercosporella herpotrichoides assessed as inhibition of mycelium growth
Phytophthora cinnamomi = assay: Antifungal activity against Phytophthora cinnamomi assessed as inhibition of mycelium growth
Rhizoctonia solani = assay: Antifungal activity against Rhizoctonia solani assessed as inhibition of mycelium growth
Alternaria alternata = assay: Antifungal activity against Alternaria alternata assessed as inhibition of mycelium growth
Fusarium = assay: Antifungal activity against Fusarium roseum assessed as inhibition of mycelium growth
Ustilago nuda = assay: Antifungal activity against Ustilago nuda assessed as inhibition of mycelium growth
[2] = test system: Phytophthora citrophthora; assay: Antifungal activity against Phytophthora citrophthora assessed as inhibition of mycelium growth
Botrytis cinerea = assay: Antifungal activity against Botrytis cinerea assessed as inhibition of mycelium growth
Pyricularia oryzae = assay: Antifungal activity against Pyricularia oryzae assessed as inhibition of mycelium growth

Structure (SMILES)	IC90 (Phytopythium vexans) [µg/mL]	IC90 [1] [µg/mL]	IC90 (Helminthosporium) [µg/mL]	IC90 (Parastagonospora nodorum) [µg/mL]	IC90 (Oculimacula yallundae) [µg/mL]	IC90 (Phytophthora cinnamomi) [µg/mL]	IC90 (Rhizoctonia solani) [µg/mL]	IC90 (Alternaria alternata) [µg/mL]	IC90 (Fusarium) [µg/mL]	IC90 (Ustilago nuda) [µg/mL]	IC90 [2] [µg/mL]	IC90 (Botrytis cinerea) [µg/mL]	IC90 (Pyricularia oryzae) [µg/mL]
C/C1=C\[C@H](C)C[C@H](C)OC(=O)[C@H](C(C)C)NC(=O)[C@@H](Cc2ccc(O)c(I)c2)N(C)C(=O)CNC(=O)[C@@H](C)C1 [NEOSIPHONIAMOLIDE A]	> 5	> 5	5 (≈ 7.63 µM)	> 5	> 5	> 5	> 5	> 5	> 5	> 5	> 5	> 5	5 (≈ 7.63 µM)
CO[C@H]1CC2=CC(=O)O[C@@H]([C@H](C)[C@@H](OC)C[C@H](OC)/C=C/[C@H](C)[C@@H](O)C[C@@H](OC)/C=C/[C@H](C)[C@@H]([C@@H](C)[C@@H](OC)[C@@H](C)CCC(=O)[C@H](C)[C@@H](C/C=C/N(C)C=O)OC)OC(=O)/C=C/C=C(/C)C1)[C@H]2O [SPHINXOLIDE B]	< 2	< 2	< 2	< 2	< 2	< 2	< 2	< 2	< 2	< 2	< 2	< 2	< 2
